The nature of experiment [1]: Inhibitory activity against baker's yeast alpha glucosidase. Details: species or system Saccharomyces cerevisiae.
Experiment [2] deals with Beta-amylase (Hordeum vulgare, UniProt P16098). In words: Inhibitory activity against barley beta amylase.
Experiment [3] addresses Alpha-amylase (Bacillus licheniformis, UniProt P06278). In words: Inhibitory activity against Bacillus licheniformis alpha amylase.
The target in experiment [4] is Alpha-amylase (Bacillus licheniformis) (UniProt P06278). In words: Inhibitory activity against Bacillus licheniformis alpha amylase at 200 uM.
Experiment [5] concerns Saccharomyces cerevisiae. In words: Inhibitory activity against baker's yeast alpha glucosidase at 200 uM.
For experiment [6], the target named is Beta-amylase (Hordeum vulgare) (UniProt P16098). In words: Inhibitory activity against barley beta amylase at 200 uM.

The source made the active and inactive calls. The rule behind the calls is not given here. Some results are limits rather than exact numbers.

Sequence of Alpha-amylase (Bacillus licheniformis) (P06278 whole entry): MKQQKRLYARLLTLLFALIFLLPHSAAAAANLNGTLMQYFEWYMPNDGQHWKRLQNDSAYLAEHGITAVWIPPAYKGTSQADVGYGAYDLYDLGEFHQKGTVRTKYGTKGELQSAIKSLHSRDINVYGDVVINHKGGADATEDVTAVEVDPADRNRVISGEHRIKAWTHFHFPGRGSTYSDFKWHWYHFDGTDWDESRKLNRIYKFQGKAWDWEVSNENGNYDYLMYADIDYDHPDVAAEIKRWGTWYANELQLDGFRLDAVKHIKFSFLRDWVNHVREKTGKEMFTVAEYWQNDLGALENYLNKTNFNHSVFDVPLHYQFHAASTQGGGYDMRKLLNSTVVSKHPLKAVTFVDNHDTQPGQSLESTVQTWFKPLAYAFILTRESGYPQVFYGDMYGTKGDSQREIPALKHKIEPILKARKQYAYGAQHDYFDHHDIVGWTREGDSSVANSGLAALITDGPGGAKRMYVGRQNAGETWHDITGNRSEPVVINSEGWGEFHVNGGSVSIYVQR
Sequence of Alpha-amylase (P06278 whole entry): as above
Sequence of Beta-amylase (Hordeum vulgare) (P16098 whole entry): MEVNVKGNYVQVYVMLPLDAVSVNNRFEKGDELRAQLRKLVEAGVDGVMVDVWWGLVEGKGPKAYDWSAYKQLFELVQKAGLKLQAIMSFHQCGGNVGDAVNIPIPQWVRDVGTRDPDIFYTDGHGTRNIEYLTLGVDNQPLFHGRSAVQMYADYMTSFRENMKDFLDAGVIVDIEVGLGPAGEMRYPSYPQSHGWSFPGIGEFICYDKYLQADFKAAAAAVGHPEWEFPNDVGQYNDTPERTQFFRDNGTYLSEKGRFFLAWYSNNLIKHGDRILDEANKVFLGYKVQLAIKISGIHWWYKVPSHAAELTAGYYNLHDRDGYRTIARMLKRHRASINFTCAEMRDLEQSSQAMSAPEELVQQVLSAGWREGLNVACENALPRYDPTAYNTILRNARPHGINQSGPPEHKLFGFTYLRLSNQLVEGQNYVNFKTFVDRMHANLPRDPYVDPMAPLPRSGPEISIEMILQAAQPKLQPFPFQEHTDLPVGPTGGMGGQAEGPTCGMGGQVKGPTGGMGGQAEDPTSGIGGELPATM
Sequence of Beta-amylase (P16098 whole entry): as above

`Nc1ccc(C(=O)/C=C/c2ccc(O)cc2)cc1`: the IC50 (commonly the concentration that gives 50% inhibition) was 41 µM in experiment [1], “Not Active” in experiment [2] and 269 µM in experiment [3] (read-out: IC50).

As to `O=c1c(O)c(-c2ccc(O)c(O)c2)oc2cc(O)cc(O)c12`, the result in experiment [4], in experiment [5] and in experiment [6] was inactive.

Consider `O=C(/C=C/c1cc(O)ccc1O)c1ccccc1`, for which the result in experiment [4], in experiment [5] and in experiment [6] was inactive.

For the compound `O=C(/C=C/c1cccc(O)c1O)c1ccccc1`, the outcome in experiment [4], in experiment [5] and in experiment [6] was inactive.

Consider `O=c1c(O)c(-c2cc(O)c(O)c(O)c2)oc2cc(O)cc(O)c12`, for which the result in experiment [4], in experiment [5] and in experiment [6] was inactive.

As to `Cc1ccc(S(=O)(=O)Nc2ccc(C(=O)/C=C/c3ccc(O)c(O)c3)cc2)cc1`, the IC50 was determined as 0.4 µM in experiment [1], 65 µM in experiment [2] (read-out: IC50) and 194 µM in experiment [3] (read-out: IC50). In addition, the affinity in experiment [1] corresponds to a Ki of 0.24 µM.

For the compound `Oc1cc(O)c2c(c1)O[C@H](c1ccc(O)c(O)c1)[C@@H](O)C2`, the result in experiment [4], in experiment [5] and in experiment [6] was inactive.

For `O=C(/C=C/c1ccc(O)cc1)c1ccccc1`, the outcome in experiment [4], in experiment [5] and in experiment [6] was inactive.

Take `Cc1ccc(S(=O)(=O)Nc2ccc(C(=O)/C=C/c3ccc(O)cc3)cc2)cc1`: the results for the IC50 in experiment [1], in experiment [2] (read-out: IC50) and in experiment [3] (read-out: IC50) were 0.98 µM, 247 µM and 87.8 µM, respectively. For the same compound, in experiment [1], the Ki (usually the dissociation constant of the complex between target and ligand, obtained from inhibition or displacement) was 0.58 µM.

Regarding `Nc1cccc(C(=O)/C=C/c2ccc(O)cc2)c1`, the IC50 in experiment [1] was above 200 µM; in experiment [2] (read-out: IC50) it was 206 µM; in experiment [3], “Not Active”.

With `Nc1ccc(C(=O)/C=C/c2ccc(O)c(O)c2)cc1`, the IC50 in experiment [1] is 62.1 µM; in experiment [2] (read-out: IC50), 127 µM; in experiment [3], “Not Active”.

For the compound `Cc1ccc(S(=O)(=O)Nc2cccc(C(=O)/C=C/c3ccc(O)cc3)c2)cc1`, the figures for the IC50 in experiment [1], in experiment [2] (read-out: IC50) and in experiment [3] (read-out: IC50) were 12.4 µM, 201 µM and 37.3 µM, respectively. For the same compound, in experiment [1], the Ki amounted to 7.38 µM.

As for `O=C(/C=C/c1ccc(O)c(O)c1)c1ccccc1`, the outcome in experiment [4], in experiment [5] and in experiment [6] was inactive.

In the case of `Nc1cccc(C(=O)/C=C/c2ccc(O)c(O)c2)c1`, the IC50 in experiment [1] is above 200 µM; in experiment [2], “Not Active”; in experiment [3], “Not Active”.

As for `C[C@H]1O[C@H](O[C@H]2[C@H](O)[C@@H](O)[C@@H](O[C@H]3[C@H](O)[C@@H](O)C(O)O[C@@H]3CO)O[C@@H]2CO)[C@H](O)[C@@H](O)[C@@H]1N[C@H]1C=C(CO)[C@@H](O)[C@H](O)[C@H]1O` (stereo not given in full) [ACARBOSE], the IC50 in experiment [1] stood at 60.8 µM.

`O=C(/C=C/c1cccc(O)c1)c1ccc(O)cc1`: the result in experiment [4], in experiment [5] and in experiment [6] was inactive.

Take `O=C(/C=C/c1ccc(O)cc1O)c1ccccc1`: the result in experiment [4], in experiment [5] and in experiment [6] was inactive.

Turning to `O=C(/C=C/c1ccccc1O)c1ccccc1`, the result in experiment [4], in experiment [5] and in experiment [6] was inactive.

For the compound `O=C(/C=C/c1ccc(O)cc1)c1ccc(O)cc1`, the outcome in experiment [4], in experiment [5] and in experiment [6] was inactive.

As to `Cc1ccc(S(=O)(=O)Nc2cccc(C(=O)/C=C/c3ccc(O)c(O)c3)c2)cc1`, the IC50 in experiment [1] is 15.6 µM; in experiment [2] (read-out: IC50) it was 24.8 µM; in experiment [3] (read-out: IC50), 16.8 µM. Besides, affinity in experiment [1] was put at a Ki of 9.25 µM.

Consider `Oc1cc(O)c2c(c1)O[C@@H](c1ccc(O)c(O)c1)[C@H](O)C2`, for which the result in experiment [4], in experiment [5] and in experiment [6] was inactive.

The record behind these values is ChEMBL document CHEMBL1141244, “Sulfonamide chalcone as a new class of alpha-glucosidase inhibitors” (Bioorg Med Chem Lett, 2005).
